pIC50: −log10 of the molar value. Where two headings read alike, the source gives them in different places.

This experiment deals with human PDHK2 (hPDHK2) (Homo sapiens (Human), UniProt Q15119). As to the kind of experiment: Inhibitory action of PDHK activity in vitro (kinase reaction, residual PDH activity measured). It is filed as biochemical.
Setting [1] is: PDHK inhibitory activity (class symbol).
Where [2] appears, read: read-out: PDHK inhibitory activity IC50.
Setting [3] is: PDHK inhibitory activity, class symbol of IC50.
Setting [4] is: PDHK inhibitory activity IC50 (μmol/L).
The mark [5] stands for this setting: class symbol of IC50, read-out: PDHK inhibitory activity.

On to `CC(C)(C)Cn1cc(-c2cc(C(N)=O)c3c(c2)C(O)(C(F)(F)F)c2ccccc2-3)cn1` (stereo not shown) [compound 646], for which the pIC50 by setting is: under setting [1], greater than 7.00; under setting [2], 7.40.

Turning to `OC1(C(F)(F)F)c2ccccc2-c2ccc(OCC3CCCCC3)cc21` (stereo not shown) [compound 253], the pIC50 under setting [3] was less than 6.00 and the pIC50 under setting [2] is 5.71.

In the case of `CC(C)NC(=O)c1ccc2c(c1)-c1ccccc1C2(O)C(F)(F)F` (stereo not shown) [compound 73], the pIC50 is less than 6.00 under setting [3] and 5.32 under setting [2].

Take `NC(=O)C1CCN(c2ccc3c(c2)C(O)(C(F)(F)F)c2ccccc2-3)CC1` (stereo not shown) [compound 230]: the pIC50 under setting [3] was less than 6.00 and the pIC50 under setting [2] is 5.43.

Take `Cn1cc(-c2cc(C(=O)N3CCCC3)cc3c2-c2ccccc2C3(O)C(F)(F)F)cn1` (stereo not shown) [compound 356]: the pIC50 is greater than 7.00 under setting [3] and 7.28 under setting [2].

With `O=C(COc1ccc2c(c1)C(O)(C(F)(F)F)c1ccccc1-2)N1CCC[C@H]1CO` (stereo partly shown) [compound 383], the pIC50 runs as follows: under setting [3], less than 6.00; under setting [2], 5.91.

As to `COC1CN(C(=O)c2ccc3c(c2)C(O)(C(F)(F)F)c2ccccc2-3)C1` (stereo not shown) [compound 86], the pIC50 is 6.00 to 7.00 under setting [3] and 6.42 under setting [2].

For `CCOc1cccc2c1-c1ccccc1C2(O)C(F)(F)F` (stereo not shown) [compound 66], the pIC50 under setting [3] is less than 6.00 and the pIC50 under setting [2] is 4.18.

In the case of `O=C(O)c1ccccc1-c1ccc2c(c1)C(O)(C(F)(F)F)c1ccccc1-2` (stereo not shown) [compound 180], the pIC50 by setting is: under setting [3], less than 6.00; under setting [2], less than 5.00.

In the case of `Cn1cc(-c2cc(C(=O)NCCCCO)cc3c2-c2ccccc2C3(O)C(F)(F)F)cn1` (stereo not shown) [compound 345], the pIC50 under setting [3] is 6.00 to 7.00 and the pIC50 under setting [2] is 6.92.

On to `NC(=O)c1ccc2c(c1)C(O)(C(F)(F)F)c1ccccc1-2` (stereo not shown) [compound 29], for which the pIC50 runs as follows: under setting [3], less than 6.00; under setting [2], 5.24.

For `CN(c1ccccc1)c1ccc2c(c1)C(O)(C(F)(F)F)c1ccccc1-2` (stereo not shown) [compound 186], the pIC50 under setting [3] was less than 6.00 and the pIC50 under setting [2] is 5.23.

With `CC(C)C(=O)c1cccc2c1-c1ccccc1C2(O)C(F)(F)F` (stereo not shown) [compound 93], the pIC50 is less than 6.00 under setting [3] and 4.53 under setting [2].

With `CC1CN(C(=O)c2ccc3c(c2)C(O)(C(F)(F)F)c2ccccc2-3)C1` (stereo not shown) [compound 88], the pIC50 by setting is: under setting [3], less than 6.00; under setting [2], 5.60.

Consider `OC1(C(F)(F)F)c2ccccc2-c2ccc(-c3cccs3)cc21` (stereo not shown) [compound 144], for which the pIC50 runs as follows: under setting [3], less than 6.00; under setting [2], 5.95.

Turning to `O=C1CCCN1CCOc1cnc2c(c1)C(O)(C(F)(F)F)c1ccccc1-2` (stereo not shown) [compound 430, 1-[2-(5-hydroxy-5-trifluoromethyl-5H-indeno[1,2-b]pyridin-3-yloxy)-ethyl]-pyrrolidin-2-one], the pIC50 is, setting by setting: under setting [3], greater than 7.00; under setting [2], 7.19.

With `O=C(O)CCCCOc1ccc2c(c1)C(O)(C(F)(F)F)c1ccccc1-2` (stereo not shown) [compound 295], the pIC50 reads like this: under setting [3], 6.00 to 7.00; under setting [2], 6.06.

As to `Cc1cc(-c2cnn(C3(CO)CCCC3)c2)c2c(c1)[C@@](O)(C(F)(F)F)c1ccccc1-2` (stereo in doubt) [compound 546], the pIC50 by setting is: under setting [4], 7.82; under setting [3], greater than 7.00.

Turning to `O=C(c1cc(CO)c2c(c1)C(O)(C(F)(F)F)c1ccccc1-2)N1CCCC1` (stereo not shown) [compound 572], the pIC50 reads like this: under setting [3], 6.00 to 7.00; under setting [2], 6.96.

In the case of `CC(C)n1cc(-c2ccc3c(c2)C(O)(C(F)(F)F)c2cccc(CO)c2-3)cn1` (stereo not shown) [compound 593], the pIC50 under setting [5] was less than 6.00 and the pIC50 under setting [2] was less than 6.00.

Turning to `O=C(c1ccccc1)c1ccc2c(c1)C(O)(C(F)(F)F)c1ccccc1-2` (stereo not shown) [compound 98], the pIC50 was less than 6.00 under setting [3] and 5.62 under setting [2].

For `Cc1cc(-c2ccc3c(c2)C(O)(C(F)(F)F)c2ccccc2-3)ccn1` (stereo not shown) [compound 198], the pIC50 is, setting by setting: under setting [3], 6.00 to 7.00; under setting [2], 6.90.

As for `COc1ccc2c(c1)C(O)(C(F)(F)F)c1ccccc1-2` (stereo not shown) [compound 37], the pIC50 by setting is: under setting [3], less than 6.00; under setting [2], 5.40.

For `COC(=O)c1cccc2c1-c1cc(F)ccc1C2(O)C(F)(F)F` (stereo not shown) [compound 220], the pIC50 is 6.00 to 7.00 under setting [3] and 6.31 under setting [2].

On to `CN(C)C(=O)C1CCN(c2ccc3c(c2)C(O)(C(F)(F)F)c2ccccc2-3)CC1` (stereo not shown) [compound 232], for which the pIC50 reads like this: under setting [3], less than 6.00; under setting [2], 5.70.

Consider `COC(=O)c1cc(-c2cnn(C)c2)c2c(c1)C(O)(C(F)(F)F)c1ccccc1-2` (stereo not shown) [compound 343], for which the pIC50 reads like this: under setting [3], greater than 7.00; under setting [2], 7.28.

With `C#Cc1cc(CO)c2c(c1)C(O)(C(F)(F)F)c1ccccc1-2` (stereo not shown) [compound 641], the pIC50 runs as follows: under setting [1], 6.00 to 7.00; under setting [2], 6.29.

With `COc1cc(-c2cnn(CC(C)(C)C(=O)O)c2)c2c(c1)C(O)(C(F)(F)F)c1ccccc1-2` (single isomer, unassigned) [compound 619], the pIC50 was greater than 7.00 under setting [1] and 7.48 under setting [2].

As for `OCCCCOc1cc(CO)c2c(c1)C(O)(C(F)(F)F)c1ccccc1-2` (stereo not shown) [compound 611], the pIC50 by setting is: under setting [1], 6.00 to 7.00; under setting [2], 6.48.

Take `CN(C)C(=O)CCCOc1cc(-c2cncnc2)c2c(c1)C(O)(C(F)(F)F)c1ccccc1-2` (stereo not shown) [compound 429]: the pIC50 under setting [3] is greater than 7.00 and the pIC50 under setting [2] was 7.72.

`Cn1cc(-c2cc(C(=O)N3CC(CO)C3)cc3c2-c2ccccc2C3(O)C(F)(F)F)cn1` (stereo not shown) [compound 374]: the pIC50 is greater than 7.00 under setting [3] and 7.31 under setting [2].

For `O=C1CCC(CO)N1CCOc1ccc2c(c1)C(O)(C(F)(F)F)c1ccccc1-2` (stereo not shown) [compound 450], the pIC50 by setting is: under setting [3], 6.00 to 7.00; under setting [2], 6.35.

In the case of `CC(=O)c1ccc2c(c1)C(O)(C(F)(F)F)c1ccccc1-2` (stereo not shown) [compound 76], the pIC50 is less than 6.00 under setting [3] and 5.76 under setting [2].

In the case of `CN(C)C(=O)CCCCOc1ccc2c(c1)C(O)(C(F)(F)F)c1ccccc1-2` (stereo not shown) [compound 299], the pIC50 is 6.00 to 7.00 under setting [3] and 6.63 under setting [2].

As to `CC(=O)c1cc(-c2cnn(CCC(=O)O)c2)cc2c1-c1ccccc1C2(O)C(F)(F)F` (stereo not shown) [compound 594], the pIC50 reads like this: under setting [3], greater than 7.00; under setting [2], 7.32.

In the case of `O=C(c1ccc2c(c1)C(O)(C(F)(F)F)c1ccccc1-2)N1CC(C(=O)N2CCCCC2)C1` (stereo not shown) [compound 202], the pIC50 is, setting by setting: under setting [3], 6.00 to 7.00; under setting [2], 6.61.

Take `OC1(Cn2cc(-c3cc(F)cc4c3-c3ccccc3[C@]4(O)C(F)(F)F)cn2)CCCCC1` (stereo in doubt) [compound 544]: the pIC50 under setting [4] was 7.66 and the pIC50 under setting [3] was greater than 7.00.

Consider `CNCc1ccc2c(c1)C(O)(C(F)(F)F)c1ccccc1-2` (stereo not shown) [compound 417], for which the pIC50 runs as follows: under setting [5], less than 6.00; under setting [2], less than 6.00.

For the compound `OC1(C(F)(F)F)c2ccccc2-c2c(-c3cccnc3)cccc21` (stereo not shown) [compound 146], the pIC50 runs as follows: under setting [3], 6.00 to 7.00; under setting [2], 6.67.

In the case of `CCOC(=O)c1ccc(-c2cc(Cl)c3c(c2)C(O)(C(F)(F)F)c2ccccc2-3)cc1` (stereo not shown) [compound 233], the pIC50 reads like this: under setting [3], 6.00 to 7.00; under setting [2], 6.85.

Regarding `NC(=O)CCn1cc(-c2ccc3c(c2)C(O)(C(F)(F)F)c2cccc(CO)c2-3)cn1` (stereo not shown) [compound 601], the pIC50 by setting is: (read-out: PDHK inhibitory activity (class symbol)) less than 6.00; under setting [2], less than 6.00.

For the compound `CC[Si](CC)(CC)CCc1cc(C(N)=O)c2c(c1)C(O)(C(F)(F)F)c1ccccc1-2` (stereo not shown) [compound 634], the pIC50 reads like this: under setting [1], 6.00 to 7.00; under setting [2], 7.00.

With `CN(C)C(=O)CCn1cc(-c2cccc3c2-c2ccccc2C3(O)C(F)(F)F)cn1` (stereo not shown) [compound 488], the pIC50 reads like this: under setting [3], greater than 7.00; under setting [2], 7.28.

Consider `CC(C)n1cc(-c2cc(C(N)=O)c3c(c2)C(O)(C(F)(F)F)c2ccccc2-3)cn1` (stereo not shown) [compound 528], for which the pIC50 runs as follows: under setting [3], greater than 7.00; under setting [2], 7.31.

In the case of `CC(C)(C)OC(=O)c1ccc(-c2cc(-c3cccnc3)c3c(c2)C(O)(C(F)(F)F)c2ccccc2-3)cc1` (stereo not shown) [compound 341], the pIC50 by setting is: under setting [3], greater than 7.00; under setting [2], 7.10.

On to `O=C(c1ccc2c(c1)C(O)(C(F)(F)F)c1ccccc1-2)N1CC(OCCO)C1` (stereo not shown) [compound 108], for which the pIC50 is, setting by setting: under setting [3], 6.00 to 7.00; under setting [2], 6.34.

As to `CNC(=O)C1CCCN1C(=O)c1ccc2c(c1)C(O)(C(F)(F)F)c1ccccc1-2` (stereo not shown) [compound 177], the pIC50 was less than 6.00 under setting [3] and 5.04 under setting [2].

For `O=C(COc1cc(Br)c2c(c1)C(O)(C(F)(F)F)c1ccccc1-2)N1CCC1` (stereo not shown) [compound 437], the pIC50 was greater than 7.00 under setting [3] and 7.22 under setting [2].

In the case of `OC1(C(F)(F)F)c2ccccc2-c2ccc(OCC3CCCC3)cc21` (stereo not shown) [compound 254], the pIC50 is less than 6.00 under setting [3] and 5.95 under setting [2].

Regarding `CN(C)C(=O)c1cc(-c2cncnc2)c2c(c1)C(O)(C(F)(F)F)c1ccccc1-2` (stereo not shown) [compound 368], the pIC50 was 6.00 to 7.00 under setting [3] and 6.74 under setting [2].

For the compound `Cn1cc(-c2cc(OCC(=O)O)cc3c2-c2ccccc2C3(O)C(F)(F)F)cn1` (stereo not shown) [compound 433], the pIC50 is 6.00 to 7.00 under setting [3] and 6.41 under setting [2].

Take `Cc1nn(C)c(C)c1-c1cccc2c1-c1ccccc1C2(O)C(F)(F)F` (stereo not shown) [compound 567]: the pIC50 was less than 6.00 under setting [5] and less than 6.00 under setting [2].

With `COCOCCN1C(=O)CCC1COc1ccc2c(c1)C(O)(C(F)(F)F)c1ccccc1-2` (stereo not shown) [compound 431], the pIC50 reads like this: under setting [3], 6.00 to 7.00; under setting [2], 6.60.

`OC1(C(F)(F)F)c2ccccc2-c2ccc(-c3ccsc3)cc21` (stereo not shown) [compound 145]: the pIC50 under setting [3] was less than 6.00 and the pIC50 under setting [2] was 5.86.

As to `CCC(=O)N1CCN(c2ccc3c(c2)C(O)(C(F)(F)F)c2ccccc2-3)CC1` (stereo not shown) [compound 207], the pIC50 is, setting by setting: under setting [3], 6.00 to 7.00; under setting [2], 6.00.

As for `OCCn1cc(-c2ccc3c(c2)C(O)(C(F)(F)F)c2cccc(CO)c2-3)cn1` (stereo not shown) [compound 590], the pIC50 was less than 6.00 under setting [3] and 5.23 under setting [2].

These data come from patent US8871934B2, “Fluorene compound and pharmaceutical use thereof” (Japan Tobacco Inc., priority 2008, dated 2014).
